US5989875A, “Method of process for producing L-lysine by fermentation” (priority 1995, dated 1999)

How the values were obtained:
Assay type in all cases: cell-based, E. coli
W3110/pdapA1 strain = assay: Growth of W3110/pdapA1 on M9 media containing AEC
Experimental: (§1) A transformed strain obtained by introducing pdapA1 into a wild type E. coli W3110 strain (available from National Institute of Genetics (Mishima-shi, Shizuoka-ken, Japan)) was designated as W3110/pdapA1, and a transformed strain obtained by introducing pdapA2 into the E. coli W3110 strain was designated as W3110/pdapA2, respectively. These two transformed strains were cultivated respectively in a minimal medium M9 having the following composition to which AEC as an analog of lysine was added. The W3110 strain with no introduced plasmid was also cultivated in the same medium as a control.
(§2) The W3110/pdapA1 strain and the W3110/pdapA2 strain obtained as described above were cultivated on M9 agar plate media containing various concentrations of AEC, respectively. Growth inhibitory concentrations by AEC were examined, and a selection condition was investigated for a strain harboring a plasmid containing dapA*.
(§3) In this table, + indicates growth of transformant, and - indicates no growth.

W3110/pdapA2 strain = assay: Growth of W3110/pdapA2 on M9 media containing AEC; conditions: for Growth of W3110/pdapA2: M9 agar
Experimental: as §1, §2, §3

GT3/pLYSC1 strain = assay: Growth of GT3/pLYSC1 on M9 media containing L-lysine or AEC; conditions: for Growth of GT3/pLYSC1: M9 agar
Experimental: (§4) A transformed strain obtained by introducing pLYSC1 into the AK completely deficient strain, E. coli GT3 was designated as GT3/pLYSC1, and a transformed strain obtained by introducing pLYSC2 into the E. coli GT3 was designated as GT3/pLYSC2. A considerable amount of L-lysine was added to the minimal medium M9, and the GT3/pLYSC1 strain and the GT3/pLYSC2 strain were each cultivated. Both of the GT3/pLYSC1 strain and the GT3/pLYSC2 strain harbor plasmids containing the wild type lysC, in which AKIII encoded by lysC on the plasmids is a sole AK. The wild type AKIII as the sole AK is inhibited by L-lysine in the presence of a considerable amount of L-lysine.
(§5) The GT3/pLYSC1 strain and the GT3/pLYSC2 strain were cultivated on M9 agar plate media containing various concentrations of L-lysine or AEC, respectively. Growth inhibitory concentrations by L-lysine and AEC were examined, and a selection condition was investigated for a strain harboring a plasmid containing lysC*.
(§6) In this table, + indicates growth of transformant, ± indicates a little growth, and - indicates no growth.

GT3/pLYSC2 strain = assay: Growth of GT3/pLYSC2 on M9 media containing L-lysine or AEC; conditions: M9 agar
Experimental: as §4, §5, §6

W3110 strain = assay: Growth of W3110 strain with no plasmid in minimal medium M9 with AEC; conditions: W3110 strain having no plasmid
Experimental: as §1

NCCSC[C@H](N)C(=O)O [AEC, S-2-aminoethylcysteine]
suppressed in growth: Growth in minimal medium M9 to which AEC was added (W3110/pdapA1 strain; W3110/pdapA1) | Growth in minimal medium M9 to which AEC was added (W3110/pdapA2 strain; W3110/pdapA2) | Growth in minimal medium M9 to which AEC was added (W3110 strain)
0.2 mM: MIC (GT3/pLYSC1 strain; Escherichia coli, GT3, read-out: Allotment of addition in which growth was completely suppressed)
15 mM: MIC (W3110/pdapA2 strain; Escherichia coli, read-out: Allotment of addition in which growth was suppressed)
±: Growth of GT3/pLYSC2 (GT3/pLYSC2 strain; AEC 0.2 mM) | Growth of GT3/pLYSC2 (GT3/pLYSC2 strain; AEC 0.4 mM) | Growth of GT3/pLYSC2 (GT3/pLYSC2 strain; AEC 0.8 mM) | Growth of GT3/pLYSC2 (GT3/pLYSC2 strain; AEC 1.5 mM) | Growth of GT3/pLYSC2 (GT3/pLYSC2 strain; AEC 3 mM)
3 mM: Allotment of addition up to which growth was not suppressed (GT3/pLYSC2 strain; GT3/pLYSC2 strain)
+: Growth of W3110/pdapA1 (W3110/pdapA1 strain; M9 agar, AEC 2 mM) | Growth of W3110/pdapA1 (W3110/pdapA1 strain; M9 agar, AEC 4 mM) | Growth of W3110/pdapA1 (W3110/pdapA1 strain; M9 agar, AEC 8 mM) | Growth of W3110/pdapA1 (W3110/pdapA1 strain; M9 agar, AEC 15 mM) | Growth of W3110/pdapA2 (W3110/pdapA2 strain; AEC 2 mM) | Growth of W3110/pdapA2 (W3110/pdapA2 strain; AEC 4 mM) | Growth of W3110/pdapA2 (W3110/pdapA2 strain; AEC 8 mM)
30 mM: MIC (W3110/pdapA1 strain; Escherichia coli, W3110/pdapA1 strain, M9 agar, read-out: Allotment of addition in which growth was suppressed)
-: Growth of W3110/pdapA1 (W3110/pdapA1 strain; M9 agar, AEC 30 mM) | Growth of W3110/pdapA1 (W3110/pdapA1 strain; M9 agar, AEC 60 mM) | Growth of W3110/pdapA1 (W3110/pdapA1 strain; M9 agar, AEC 125 mM) | Growth of W3110/pdapA1 (W3110/pdapA1 strain; M9 agar, AEC 250 mM) | Growth of W3110/pdapA2 (W3110/pdapA2 strain; AEC 15 mM) | Growth of W3110/pdapA2 (W3110/pdapA2 strain; AEC 30 mM) | Growth of W3110/pdapA2 (W3110/pdapA2 strain; AEC 60 mM) | Growth of W3110/pdapA2 (W3110/pdapA2 strain; AEC 125 mM) | Growth of W3110/pdapA2 (W3110/pdapA2 strain; AEC 250 mM) | Growth of GT3/pLYSC1 (GT3/pLYSC1 strain; AEC 0.2 mM) | Growth of GT3/pLYSC1 (GT3/pLYSC1 strain; AEC 0.4 mM) | Growth of GT3/pLYSC1 (GT3/pLYSC1 strain; AEC 0.8 mM) | Growth of GT3/pLYSC1 (GT3/pLYSC1 strain; AEC 1.5 mM) | Growth of GT3/pLYSC1 (GT3/pLYSC1 strain; AEC 3 mM) | Growth of GT3/pLYSC1 (GT3/pLYSC1 strain; AEC 6 mM) | Growth of GT3/pLYSC1 (GT3/pLYSC1 strain; AEC 12 mM) | Growth of GT3/pLYSC1 (GT3/pLYSC1 strain; AEC 25 mM) | Growth of GT3/pLYSC1 (GT3/pLYSC1 strain; AEC 50 mM) | Growth of GT3/pLYSC2 (GT3/pLYSC2 strain; AEC 6 mM) | Growth of GT3/pLYSC2 (GT3/pLYSC2 strain; AEC 12 mM) | Growth of GT3/pLYSC2 (GT3/pLYSC2 strain; AEC 25 mM) | Growth of GT3/pLYSC2 (GT3/pLYSC2 strain; AEC 50 mM)
